Where a name gives a salt, the structure may show the parent alone.
What follows are compounds tested against T1, NaPi-IIb (Mus musculus, UniProt Q9DBP0) (assay: Inhibition of NaPi-IIb in vivo: plasma counts after oral radioactive phosphate in mice). Settings: 5 mg/kg oral, 20% HPBCD vehicle, fasted male mice; 30 min post compound, 15 min post labelled phosphate.
T1 construct: from tissue; host or cells: living C57Bl6 mice (gastrointestinal tract)
T1 sequence (Q9DBP0 1-697): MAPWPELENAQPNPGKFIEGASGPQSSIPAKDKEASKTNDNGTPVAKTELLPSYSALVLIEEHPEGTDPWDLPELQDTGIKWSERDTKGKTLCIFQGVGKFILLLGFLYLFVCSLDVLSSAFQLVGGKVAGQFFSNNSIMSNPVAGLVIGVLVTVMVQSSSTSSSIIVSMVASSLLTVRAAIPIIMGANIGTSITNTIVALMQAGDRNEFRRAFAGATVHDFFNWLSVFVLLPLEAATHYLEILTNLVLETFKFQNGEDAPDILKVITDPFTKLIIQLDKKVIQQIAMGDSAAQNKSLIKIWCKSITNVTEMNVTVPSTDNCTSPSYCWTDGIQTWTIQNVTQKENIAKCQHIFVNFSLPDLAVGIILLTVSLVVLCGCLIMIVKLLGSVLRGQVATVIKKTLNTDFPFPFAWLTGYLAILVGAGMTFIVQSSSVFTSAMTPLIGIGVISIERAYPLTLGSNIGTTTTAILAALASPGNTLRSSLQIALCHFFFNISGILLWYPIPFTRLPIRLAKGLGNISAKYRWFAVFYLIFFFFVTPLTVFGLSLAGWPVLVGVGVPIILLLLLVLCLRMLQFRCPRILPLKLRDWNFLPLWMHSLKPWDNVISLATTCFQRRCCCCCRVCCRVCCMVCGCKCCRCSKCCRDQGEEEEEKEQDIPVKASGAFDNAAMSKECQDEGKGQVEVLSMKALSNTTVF
Procedure: For test article and vehicle control preparation, add vehicle, 20% hydroxypropyl-beta-cyclodextrin (HPBCD) in water, to the test article. Sonicate to reduce particle size in an ultrasonic water bath as needed. If necessary, use a polytron to break down any visible particles in test article solution. The pH of the vehicle control is adjusted to 8.0 to 8.5 with 1N NaOH.
Radioactive phosphate preparation: Prepare a 16.25 mM Na2HPO4 solution using 0.9% saline as the vehicle. Mix until a clear solution is formed. Adjust pH to approximately 7.4. Filter using a sterile 0.2 μm polyethersulfone membrane. For the final preparation of the radioactive phosphate dosing solution, add 0.5 μl of stock H3^3PO4 per 1 mL of Na2HPO4. Mix thoroughly then sterile filter the H3^33PO4+Na2HPO4 solution using a 0.2 μm polyethersulfone membrane prior to dosing. Measure the radioactivity of each sample with the scintillation counter. If the DPMs are between 100,000 and 150,000 proceed with dosing.
In-vivo protocol: Male C57B16 male mice at the age of about 8-9 wks old are fasted for 16 hrs the day before the study. They are assigned to treatment groups based on body weight on the day of study. Mice are dosed orally with either the test article, prepared as described above, or vehicle control at a 10 mis/kg dose volume. Fifteen minutes later, the radioactive phosphate dosing solution is given by oral gavage. Fifteen minutes later, blood is collected by orbital bleed. Plasma is prepared and 50 μl of EDTA plasma from each mouse is mixed with 10 ml of scintillation fluid and the counts determined by scintillation counting. The effect of the test article is determined by comparing the counts in the plasma from the test article treated animals to counts in the plasma of the vehicle control treated animals [Percent Inhibition=[…]]. Percent inhibition is measured at 30 minutes post administration of the compound or vehicle, and at 15 minutes post administration of the labelled phosphate. Percent Inhibition for indicated Examples are illustrated in Table 3 below.
Alternative vehicles, for example poly-1-vinylpyrrolidone-co-vinyl acetate (PVP-VA), at varying concentrations, may be used. Example 1 can be assayed in PVP-VA, and for this study the compound is formulated as described in the solid dispersion preparation of Example 1, followed by dissolving in water then dosing by oral gavage. The vehicle control is water with varying concentrations of PVP-VA, matching the concentration found in the highest dose of Example 1, the lowest dose of Example 1, and an intermediate dose of Example 1. No effect of varying PVP-VA on the uptake of radiolabeled phosphate is observed over several studies, and thus all the vehicles are averaged to calculate percent inhibition.

Row | Percent Inhibition | Structure (SMILES)
1 | 60% | CC1(C)CN(C(=O)CCC(=O)O)CCN1Cc1cccc(C(=O)Nc2sc3c(c2C(=O)Nc2cc(F)c(CCc4ccc(C(N)=O)cc4)c(F)c2)CCCC3)c1 [Example 8, 4-[4-[[3-[[3-[[4-[2-(4-carbamoylphenyl)ethyl]-3,5-difluoro-phenyl]carbamoyl]-4,5,6,7-tetrahydrobenzothiophen-2-yl]carbamoyl]phenyl]methyl]-3,3-dimethyl-piperazin-1-yl]-4-oxo-butanoic Acid]
2 | 62% | CC1(C)CN(C(=O)CN)CCN1Cc1cccc(C(=O)Nc2sc3c(c2C(=O)Nc2cc(F)c(CCc4ccc(C(=O)O)cc4)c(F)c2)CCCC3)c1 [Example 6, 4-[2-[4-[[2-[[3-[[4-(2-aminoacetyl)-2,2-dimethyl-piperazin-1-yl]methyl]benzoyl]amino]-4,5,6,7-tetrahydrobenzothiophene-3-carbonyl]amino]-2,6-difluoro-phenyl]ethyl]benzoic Acid]
3 | 52% | CC1(C)CN(CCCC(=O)O)CCN1Cc1cccc(C(=O)Nc2sc3c(c2C(=O)Nc2cc(F)c(CCc4ccc(C(=O)O)cc4)c(F)c2)CCCC3)c1 [Example 4, 4-[2-[4-[[2-[[3-[[4-(3-carboxypropyl)-2,2-dimethyl-piperazin-1-yl]methyl]benzoyl]amino]-4,5,6,7-tetrahydrobenzothiophene-3-carbonyl]amino]-2,6-difluoro-phenyl]ethyl]benzoic Acid]

These compounds were tested against T2, murine NaPi-IIb (Mus musculus, UniProt Q9DBP0) (assay: Inhibition of 33P uptake in mouse NaPi-IIb T-REX-CHO stable cell line). Settings: 60 min at RT, geometric mean (SD), read-out: m NaPi-IIb rel IC50 (nM), (SD).
T2 construct: expressed in transfected cells
T2 sequence (Q9DBP0 1-697): T1 sequence (Q9DBP0 1-697)
Type: cell-based
Procedure: Inhibition of ^33P uptake is measured in human and mouse NaPi-IIb T-REX™-CHO stable cell lines. cDNA for NaPi-IIb is subcloned in plasmid SLC34A2 pcDNA5/TO (human) and SLC34A2 pcDNA5/TO (mouse) and stable cell lines are generated from clonal isolation for both human and mouse respectively. Mouse and human stable lines are maintained in continuous culture in growth media (Dulbecco's Modified Eagle Medium: Nutrient Mixture F-12 (3:1), 10% Heat Inactivated FBS, 1% penicillin/streptomycin/FUNGIEZONE® (HYCLONE™), 20 mM HEPES, 250 μg/mL hygromycin, 5 μg/mL blasticidin). Cells are harvested from T225 cell culture flasks (CORNING®) using 0.25% Trypsin, and plated in 96 well CYTOSTAR-T™ scintillating microplates (Amersham Systems) at 40,000 cells/well in 100 μL of growth media plus 100 ng/mL of tetracycline. Cell plates are incubated overnight at 37° C. and 5% C02. The next day, compounds are serially diluted using one to three dilutions in 100% DMSO. Cell plates may remain in the incubator until ready to be assayed. A cell plate is removed from the incubator and media removed. Cells are washed 3 times with 200 μL assay buffer (137 mM NaCl, 5.4 mM KCl, 2.8 mM CaCl2), 1.2 mM MgSO4, and 14 mM Tris-HCl buffer, pH˜7.5), removing buffer in between washes. Serially diluted compounds in DMSO are further diluted 50 fold in assay buffer and 50 μL added to the CYTOSTAR-T™ assay plate, immediately followed by the addition of 50 μL of ^33P solution (PERKIN-ELMER®, Walton, Mass.; 0.05 μCi/50 μL). CYTOSTAR-T™ assay plates are covered with foil to protect from light and incubated for 60 min at RT. After the 60 min incubation, 100 μL of a stop solution (assay buffer+400 μM Phloretin) is added to the assay plate to stop ^33P uptake. The plate is immediately read on a Wallac MICROBETA® Trilux liquid scintillation counter and luminometer after stop solution is added with 1 minute count per well. Each plate may be processed separately and staggered in time so there may be no delay in counting after stop solution is added. Percent inhibition at all concentrations tested (final assay concentrations 100-0.005 μM) are calculated relative to 1% DMSO (minimum effect), and the effect of 100 μM of a fully efficacious NaPi-IIb inhibitor (maximum effect). IC50 values were calculated using a 4 parameter logistic curve fitting equation. The numbers presented are the geometric means with standard deviation (SD) calculated where n is the number of runs. Thus. Table 1 describes the relative IC50 values for Examples 1-28 against human NaPi-IIb and murine NaPi-IIb, respectively.

Row | IC50 | Structure (SMILES)
4 | 40.9 nM | COCCN(CCOC)S(=O)(=O)N1CCN(Cc2cccc(C(=O)Nc3sc4c(c3C(=O)Nc3cc(F)c(CCc5ccc(C(=O)O)cc5)c(F)c3)CCCC4)c2)C(C)(C)C1 [Example 3, 4-[2-[4-[[2-[[3-[[4-[bis(2-methoxyethyl)sulfamoyl]-2,2-dimethyl-piperazin-1-yl]methyl]benzoyl]amino]-4,5,6,7-tetrahydrobenzothiophene-3-carbonyl]amino]-2,6-difluoro-phenyl]ethyl]benzoic Acid]
5 | 8.56 nM | COCCCCNC(=O)N1CCN(Cc2cccc(C(=O)Nc3sc4c(c3C(=O)Nc3cc(F)c(CCc5ccc(C(=O)O)cc5)c(F)c3)CCCC4)c2)C(C)(C)C1 [Example 7, 4-[2-[2,6-difluoro-4-[[2-[[3-[[4-(4-methoxybutylcarbamoyl)-2,2-dimethyl-piperazin-1-yl]methyl]benzoyl]amino]-4,5,6,7-tetrahydrobenzothiophene-3-carbonyl]amino]phenyl]ethyl]benzoic Acid]
6 | 9 nM | CNC(=O)N1C2CCC1CN(Cc1cccc(C(=O)Nc3sc4ccccc4c3C(=O)Nc3cc(F)c(CCc4ccc(C(=O)O)cc4)c(F)c3)c1)C2 [Example 13, 4-[2-[2,6-difluoro-4-[[2-[[3-[[8-(methylcarbamoyl)-3,8-diazabicyclo[3.2.1]octan-3-yl]methyl]benzoyl]amino]benzothiophene-3-carbonyl]amino]phenyl]ethyl]benzoic Acid, Formic Acid Salt]
